Experimental data reported in patent publication US20240138406A1, “ANTIMICROBIAL PEPTIDE SCYAMPCIN44-63 AND APPLICATION THEREOF” (Xiamen University, priority 2021, published 2024).
No end group written: not given here.

Assays:
[1] = tested on: Candida albicans CGMCC 2.2411; conditions: CGMCC 2.2411, 24 h
[2] = tested on: Fusarium graminearum CGMCC 3.4521; conditions: Filamentous fungi, incubated 24 hours
[3] = tested on: Pseudomonas aeruginosa QZ18071; conditions: QZ18071, 24 h
[4] = tested on: Staphylococcus aureus CGMCC 1.2465; conditions: CGMCC 1.2465, 24 h
[5] = tested on: Escherichia coli CGMCC 1.2389; conditions: CGMCC 1.2389, 24 h
[6] = tested on: Enterococcus faecium CGMCC 1.131; conditions: CGMCC 1.131, 24 h
[7] = tested on: Pseudomonas aeruginosa CGMCC 1.1785; conditions: CGMCC 1.1785, 24 h
[8] = tested on: epithelioma papulosum cyprini (EPC) cells; format: cell-based
Protocol: (§1) IV. Cytotoxicity of the […]44-63 is measured and evaluated by using 3-(4,5-dimethylthiazol-2-yl)-5-(3-carboxymethoxyphenyl)-2-(4-sulfophenyl)-2H-tetrazolium (MTS) 1. Human embryonic kidney 293T (HEK-293T) cells and epithelioma papulosum […] (EPC) cells are selected to assess the cytotoxicity of the […]44-63. […] HEK-293T cells are incubated in a cell incubator with 5% CO2 at 37° C., and EPC cells are incubated in a cell incubator with 5% CO2 at 28° C. (2) 50 μL of medium is carefully sucked out, fresh media with or without different concentrations of the […]44-63 are respectively added to a corresponding well, put in a corresponding cell condition, and incubated for another 24 hours while leaving to stand. (3) 20 μL of an MTS-Phenazinemethosulfate (PMS) mixed solution is added and incubated for 4 hours, absorbance of each well is measured at OD492 nm in a microplate reader, and cell viabilities are calculated.

[9] = tested on: Human embryonic kidney 293T (HEK-293T) cells; format: cell-based
Protocol: as §1

[10] = tested on: Enterococcus faecalis QZ19138; conditions: QZ19138, 24 h
[11] = tested on: Enterococcus faecium QZ18080; conditions: QZ18080, 24 h
[12] = tested on: Bacillus cereus CGMCC 1.3760; conditions: CGMCC 1.3760, 24 h
[13] = tested on: Shigella flexneri CGMCC 1.1868; conditions: 24 h
[14] = tested on: Klebsiella pneumoniae QZ18106; conditions: QZ18106, 24 h
[15] = tested on: Fusarium solani CGMCC 3.584; conditions: 24 h
[16] = tested on: Acinetobacter baumannii QZ20141; conditions: QZ20141, 24 h
[17] = tested on: Listeria monocytogenes CGMCC 1.10753; conditions: CGMCC 1.10753, 24 h
[18] = tested on: Escherichia coli QZ18109; conditions: QZ18109, 24 h
[19] = tested on: Cryptococcus neoformans CGMCC 2.1563; conditions: CGMCC 2.1563, 24 h
[20] = tested on: Staphylococcus aureus QZ19131; conditions: QZ19131, 24 h
[21] = tested on: Acinetobacter baumannii CGMCC 1.6769; conditions: CGMCC 1.6769, 24 h

In the case of “GKKKKRNMMKTKEPGIIFFF-NH2 [Scyampcin44-63]”, the MBC [1] is reported as 3 to 6 µM, the MBC [2] is reported as 3 to 6 µM and the MBC [3] is reported as 6 to 12 µM. The MBC [4] was 3 to 6 µM, the MBC [5] was 0 to 3 µM and the MBC [6] was 0 to 3 µM. For the same substance, the MBC [7] was 6 to 12 µM, the “Cytotoxicity (cell viability, MTS)” value [8] was “no cytotoxicity” and the “Cytotoxicity (cell viability, MTS)” value [9] was “no cytotoxicity”. The MBC [10] was 3 to 6 µM, the MBC [11] was 0 to 3 µM and the MBC [12] was 3 to 6 µM. It also gave an MBC [13] of 0 to 3 µM, an MBC [14] of 3 to 6 µM and an MBC [15] of 3 to 6 µM. For the same substance, the MBC [16] was 3 to 6 µM, the MBC [17] was 0 to 3 µM and the MBC [18] was 0 to 3 µM. For the same substance, the MBC [19] was 0 to 3 µM, the MBC [20] was 3 to 6 µM and the MBC [21] was 0 to 3 µM.
